# Assay results from PMC8014548, “Applying the CiPA approach to evaluate cardiac proarrhythmia risk of some antimalarials used off‐label in the first wave of COVID‐19” (Clinical and Translational Science, 2021).
# Read-outs that look alike come from different tables or passages of the source.
# Columns and labels:
# Kir2.1 = molecular target: T1, Kir2.1 (Homo sapiens, UniProt P63252); assay: automated patch clamp (QPatch); assay type: cell-based
# T1 construct: gene KCNJ2; stably expressed in CHO cells; IK1 current; homotetramer
# T1 sequence (P63252 1-427): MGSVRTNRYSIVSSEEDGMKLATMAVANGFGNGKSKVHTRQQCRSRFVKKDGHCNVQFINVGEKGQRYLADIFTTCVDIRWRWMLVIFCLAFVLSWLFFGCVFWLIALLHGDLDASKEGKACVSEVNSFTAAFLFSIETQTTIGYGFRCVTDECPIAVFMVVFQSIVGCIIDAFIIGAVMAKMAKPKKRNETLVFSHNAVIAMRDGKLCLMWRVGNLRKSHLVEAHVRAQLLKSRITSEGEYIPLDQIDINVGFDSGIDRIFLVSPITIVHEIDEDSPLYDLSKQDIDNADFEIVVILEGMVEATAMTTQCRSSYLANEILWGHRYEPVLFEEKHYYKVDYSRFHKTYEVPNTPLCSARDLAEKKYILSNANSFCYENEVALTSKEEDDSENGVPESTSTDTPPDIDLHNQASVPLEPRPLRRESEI
# From the text: automated patch clamp (QPatch) on Kir2.1
# HCN4 = molecular target: T2, HCN4 (Homo sapiens, UniProt Q9Y3Q4); assay: automated patch clamp (SyncroPatch […]PE); assay type: cell-based
# T2 construct: stably expressed in HEK 293 cells; If current; homotetramer
# T2 sequence (Q9Y3Q4 1-1203): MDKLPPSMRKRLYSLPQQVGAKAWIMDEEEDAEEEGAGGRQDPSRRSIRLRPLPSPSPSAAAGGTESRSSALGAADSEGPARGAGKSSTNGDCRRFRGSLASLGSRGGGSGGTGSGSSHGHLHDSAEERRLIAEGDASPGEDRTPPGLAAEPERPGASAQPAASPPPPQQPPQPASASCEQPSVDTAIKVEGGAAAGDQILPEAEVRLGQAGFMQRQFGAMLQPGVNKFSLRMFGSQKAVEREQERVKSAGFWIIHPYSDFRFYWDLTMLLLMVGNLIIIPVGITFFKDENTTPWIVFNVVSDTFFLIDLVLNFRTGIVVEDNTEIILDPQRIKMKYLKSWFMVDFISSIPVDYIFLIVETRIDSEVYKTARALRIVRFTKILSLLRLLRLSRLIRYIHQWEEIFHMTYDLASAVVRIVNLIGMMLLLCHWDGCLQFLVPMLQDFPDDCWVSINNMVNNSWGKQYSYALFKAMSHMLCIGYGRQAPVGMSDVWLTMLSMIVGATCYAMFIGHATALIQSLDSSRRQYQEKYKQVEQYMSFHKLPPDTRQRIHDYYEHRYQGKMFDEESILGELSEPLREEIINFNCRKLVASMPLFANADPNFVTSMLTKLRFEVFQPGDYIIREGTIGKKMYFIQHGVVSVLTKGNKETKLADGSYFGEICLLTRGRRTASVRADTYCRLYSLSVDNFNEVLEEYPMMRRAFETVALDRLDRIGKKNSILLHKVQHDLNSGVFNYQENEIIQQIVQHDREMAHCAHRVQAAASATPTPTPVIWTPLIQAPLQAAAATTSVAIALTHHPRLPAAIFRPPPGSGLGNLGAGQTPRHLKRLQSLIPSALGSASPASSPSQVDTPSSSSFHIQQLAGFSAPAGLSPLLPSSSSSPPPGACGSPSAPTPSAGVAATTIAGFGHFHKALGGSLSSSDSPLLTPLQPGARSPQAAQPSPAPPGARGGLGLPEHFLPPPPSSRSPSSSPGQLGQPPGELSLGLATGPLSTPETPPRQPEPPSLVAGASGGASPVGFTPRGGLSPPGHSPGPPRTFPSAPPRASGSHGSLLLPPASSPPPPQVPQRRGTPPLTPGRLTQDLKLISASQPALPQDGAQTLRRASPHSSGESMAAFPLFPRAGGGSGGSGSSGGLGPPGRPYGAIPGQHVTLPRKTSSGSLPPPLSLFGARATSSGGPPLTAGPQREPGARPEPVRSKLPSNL
# [1] = molecular target: T3, CaV1.2 (coexpressed with β2/α2δ1) (Homo sapiens, UniProt Q13936); assay: automated patch clamp (SyncroPatch […]PE); assay type: cell-based; settings: read-out: CaV1.2 peak
# T3 construct: gene CACNA1C; stably expressed in CHO cells with beta2 and alpha2delta1; with Voltage-dependent L-type calcium channel subunit beta-2; Voltage-dependent calcium channel subunit alpha-2/delta-1
# NaV1.5 = molecular target: T4, NaV1.5 (Homo sapiens, UniProt Q14524); assay: automated patch clamp (SyncroPatch […]PE); assay type: cell-based; settings: read-out: NaV1.5 peak
# T4 construct: gene SCN5A; stably expressed in CHO cells; no beta subunit mentioned
# T4 sequence (Q14524 whole entry): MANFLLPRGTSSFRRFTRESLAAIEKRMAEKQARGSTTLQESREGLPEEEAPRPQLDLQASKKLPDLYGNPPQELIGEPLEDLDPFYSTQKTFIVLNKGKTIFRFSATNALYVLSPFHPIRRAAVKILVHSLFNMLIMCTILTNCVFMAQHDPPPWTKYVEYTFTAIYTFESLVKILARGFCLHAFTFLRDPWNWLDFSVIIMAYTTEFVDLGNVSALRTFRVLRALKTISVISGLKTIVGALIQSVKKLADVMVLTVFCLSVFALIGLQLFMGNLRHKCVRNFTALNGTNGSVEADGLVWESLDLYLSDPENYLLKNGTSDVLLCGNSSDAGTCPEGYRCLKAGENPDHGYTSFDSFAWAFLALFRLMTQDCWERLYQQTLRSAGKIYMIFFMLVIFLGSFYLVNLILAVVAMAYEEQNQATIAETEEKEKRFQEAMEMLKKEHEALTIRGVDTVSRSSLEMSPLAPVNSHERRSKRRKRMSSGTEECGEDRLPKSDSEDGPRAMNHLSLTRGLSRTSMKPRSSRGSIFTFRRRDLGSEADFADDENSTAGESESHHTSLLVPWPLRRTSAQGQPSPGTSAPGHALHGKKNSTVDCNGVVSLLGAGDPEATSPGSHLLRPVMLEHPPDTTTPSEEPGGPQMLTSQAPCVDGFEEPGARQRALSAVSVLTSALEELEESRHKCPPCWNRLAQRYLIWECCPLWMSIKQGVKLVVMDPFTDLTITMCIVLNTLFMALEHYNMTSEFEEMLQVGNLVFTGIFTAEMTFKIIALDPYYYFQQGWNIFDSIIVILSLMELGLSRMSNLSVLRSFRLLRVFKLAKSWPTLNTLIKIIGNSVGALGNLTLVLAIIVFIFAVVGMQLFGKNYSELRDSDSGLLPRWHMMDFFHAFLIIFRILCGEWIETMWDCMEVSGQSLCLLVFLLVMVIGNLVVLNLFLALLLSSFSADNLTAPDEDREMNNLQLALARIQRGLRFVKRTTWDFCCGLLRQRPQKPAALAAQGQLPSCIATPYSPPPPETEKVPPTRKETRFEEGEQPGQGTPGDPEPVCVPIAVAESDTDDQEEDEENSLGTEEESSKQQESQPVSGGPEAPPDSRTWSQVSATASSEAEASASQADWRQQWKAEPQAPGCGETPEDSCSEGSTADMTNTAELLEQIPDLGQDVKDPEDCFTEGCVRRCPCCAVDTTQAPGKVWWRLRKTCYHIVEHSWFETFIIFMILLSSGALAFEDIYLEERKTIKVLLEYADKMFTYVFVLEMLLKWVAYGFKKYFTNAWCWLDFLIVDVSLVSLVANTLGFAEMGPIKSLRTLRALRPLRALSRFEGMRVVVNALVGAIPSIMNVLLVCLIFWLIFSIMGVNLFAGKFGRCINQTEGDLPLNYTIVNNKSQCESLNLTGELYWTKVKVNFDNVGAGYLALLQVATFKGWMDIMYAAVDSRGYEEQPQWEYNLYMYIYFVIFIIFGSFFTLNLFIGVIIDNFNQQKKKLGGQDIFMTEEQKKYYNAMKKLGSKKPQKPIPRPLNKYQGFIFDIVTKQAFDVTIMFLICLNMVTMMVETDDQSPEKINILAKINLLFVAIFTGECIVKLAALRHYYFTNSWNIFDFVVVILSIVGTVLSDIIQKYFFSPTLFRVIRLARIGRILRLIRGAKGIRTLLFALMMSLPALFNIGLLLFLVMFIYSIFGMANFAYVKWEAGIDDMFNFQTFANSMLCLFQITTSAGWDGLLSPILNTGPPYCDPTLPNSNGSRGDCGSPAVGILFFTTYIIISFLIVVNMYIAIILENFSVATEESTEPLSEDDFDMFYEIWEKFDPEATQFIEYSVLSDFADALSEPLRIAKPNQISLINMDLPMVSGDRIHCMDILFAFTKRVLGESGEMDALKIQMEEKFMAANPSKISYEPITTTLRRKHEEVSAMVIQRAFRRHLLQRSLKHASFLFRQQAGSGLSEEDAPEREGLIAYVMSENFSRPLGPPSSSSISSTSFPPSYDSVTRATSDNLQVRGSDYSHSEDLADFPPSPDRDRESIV
# KV7.1/minK = molecular target: T5, KV7.1/minK (Homo sapiens, UniProt P51787); assay: automated patch clamp (SyncroPatch […]PE); assay type: cell-based
# T5 construct: gene KCNQ1; stably expressed in CHO cells; IKs current
# T5 sequence (P51787 whole entry): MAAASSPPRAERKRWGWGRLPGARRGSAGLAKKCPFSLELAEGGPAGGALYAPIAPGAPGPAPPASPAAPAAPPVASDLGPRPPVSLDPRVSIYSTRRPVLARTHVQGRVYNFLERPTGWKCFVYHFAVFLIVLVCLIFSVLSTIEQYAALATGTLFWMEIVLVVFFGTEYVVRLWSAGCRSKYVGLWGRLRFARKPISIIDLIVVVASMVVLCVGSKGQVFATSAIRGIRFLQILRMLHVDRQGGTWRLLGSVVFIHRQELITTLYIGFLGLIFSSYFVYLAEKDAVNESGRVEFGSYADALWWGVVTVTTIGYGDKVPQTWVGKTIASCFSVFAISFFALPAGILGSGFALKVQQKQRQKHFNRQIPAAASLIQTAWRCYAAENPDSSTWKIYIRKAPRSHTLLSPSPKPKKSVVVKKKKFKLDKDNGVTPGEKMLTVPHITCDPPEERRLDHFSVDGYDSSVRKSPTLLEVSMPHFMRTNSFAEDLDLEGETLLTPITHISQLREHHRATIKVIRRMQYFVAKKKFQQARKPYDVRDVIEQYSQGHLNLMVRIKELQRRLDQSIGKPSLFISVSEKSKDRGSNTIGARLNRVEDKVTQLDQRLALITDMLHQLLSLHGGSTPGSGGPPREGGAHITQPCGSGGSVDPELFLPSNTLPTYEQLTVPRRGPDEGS
# hERG = molecular target: T6, hERG (Homo sapiens, UniProt Q12809); assay: automated patch clamp (SyncroPatch […]PE); assay type: cell-based
# T6 construct: gene KCNH2; stably expressed in CHO cells; IKr current; homotetramer
# T6 sequence (Q12809 whole entry): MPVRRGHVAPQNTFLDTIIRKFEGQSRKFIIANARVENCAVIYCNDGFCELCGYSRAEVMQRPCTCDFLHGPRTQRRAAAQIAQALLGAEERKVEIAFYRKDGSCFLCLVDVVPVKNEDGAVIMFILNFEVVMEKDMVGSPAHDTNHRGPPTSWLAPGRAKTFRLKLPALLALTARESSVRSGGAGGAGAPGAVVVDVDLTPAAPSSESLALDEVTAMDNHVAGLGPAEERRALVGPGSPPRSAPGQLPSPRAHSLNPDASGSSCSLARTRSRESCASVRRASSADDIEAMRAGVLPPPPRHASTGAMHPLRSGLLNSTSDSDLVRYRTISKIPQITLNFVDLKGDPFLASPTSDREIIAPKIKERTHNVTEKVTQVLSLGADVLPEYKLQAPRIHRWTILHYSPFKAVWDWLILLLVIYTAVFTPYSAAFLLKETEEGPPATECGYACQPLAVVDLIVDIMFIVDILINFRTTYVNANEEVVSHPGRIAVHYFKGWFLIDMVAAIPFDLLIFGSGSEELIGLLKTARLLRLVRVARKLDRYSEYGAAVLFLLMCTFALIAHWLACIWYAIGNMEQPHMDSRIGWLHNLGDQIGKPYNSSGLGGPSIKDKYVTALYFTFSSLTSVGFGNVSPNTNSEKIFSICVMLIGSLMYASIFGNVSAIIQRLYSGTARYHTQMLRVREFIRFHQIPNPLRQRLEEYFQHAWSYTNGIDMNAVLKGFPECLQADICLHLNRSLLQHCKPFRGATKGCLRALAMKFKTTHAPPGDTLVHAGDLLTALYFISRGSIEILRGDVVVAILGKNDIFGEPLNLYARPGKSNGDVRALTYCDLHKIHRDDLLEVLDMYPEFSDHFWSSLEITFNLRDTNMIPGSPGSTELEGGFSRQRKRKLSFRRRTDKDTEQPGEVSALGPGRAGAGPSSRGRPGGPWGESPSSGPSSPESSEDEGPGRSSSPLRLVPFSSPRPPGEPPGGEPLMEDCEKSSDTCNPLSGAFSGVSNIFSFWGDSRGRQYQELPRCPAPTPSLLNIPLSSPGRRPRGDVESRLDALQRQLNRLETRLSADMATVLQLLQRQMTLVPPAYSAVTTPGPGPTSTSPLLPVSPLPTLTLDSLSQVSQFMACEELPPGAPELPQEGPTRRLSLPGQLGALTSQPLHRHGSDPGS
# [2] = automated patch clamp (SyncroPatch […]PE); assay type: cell-based, Homo sapiens; settings: read-out: CaV1.2 ramp
# [3] = automated patch clamp (SyncroPatch […]PE); assay type: cell-based, Homo sapiens; settings: read-out: CaV1.2 ramp; remark: listed apart in the source
Compound,IC50 (Kir2.1; read-out: NaV1.5 late),IC50 (HCN4; read-out: NaV1.5 late),IC50 [1],IC50 (NaV1.5),IC50 (KV7.1/minK; read-out: NaV1.5 late),IC50 (hERG),IC50 (Kir2.1; read-out: Kir2.1),IC50 (HCN4; read-out: HCN4),IC50 [2],IC50 (HCN4; read-out: NaV1.5 peak),IC50 (KV7.1/minK; read-out: NaV1.5 peak),IC50 (Kir2.1; read-out: NaV1.5 peak),IC50 [3]
CC[C@H]1OC(=O)[C@H](C)[C@@H](O[C@H]2C[C@@](C)(OC)[C@@H](O)[C@H](C)O2)[C@H](C)[C@@H](O[C@@H]2O[C@H](C)C[C@H](N(C)C)[C@H]2O)[C@](C)(O)C[C@@H](C)CN(C)[C@H](C)[C@@H](O)[C@]1(C)O [azithromycin],> 1000 µM,> 1000 µM,771 µM,612 µM,> 1000 µM,439 µM,,,,,,,
CCN(CC)CCCC(C)Nc1ccnc2cc(Cl)ccc12 (stereo not shown) [chloroquine],,,17.9 µM,13.9 µM,,,4.98 µM,96.2 µM,> 300 µM,,,,
CC[C@H]1OC(=O)[C@H](C)[C@@H](O[C@H]2C[C@@](C)(OC)[C@@H](O)[C@H](C)O2)[C@H](C)[C@@H](O[C@@H]2O[C@H](C)C[C@H](N(C)C)[C@H]2O)[C@](C)(O)C[C@@H](C)C(=O)[C@H](C)[C@@H](O)[C@]1(C)O [erythromycin],,,,,,,,,,> 1000 µM,> 1000 µM,,
CCN(CCO)CCCC(C)Nc1ccnc2cc(Cl)ccc12 (stereo not shown) [hydroxychloroquine],,,23.9 µM,17 µM,,2.66 µM,,,> 300 µM,,,44.2 µM,> 300 µM
